Results on 13 molecules are retold here after patent US11939314B2, “Quinolin-2-one derivatives” (MERCK PATENT GMBH, priority 2016, dated 2024).

One assay concerns the target T1, PDGFRalpha(V561D) (Homo sapiens, UniProt P16234, V561D).
T1 construct: recombinant human PDGFRalpha, amino acids 550end containing the V561 D mutation; 6His (N)
Description: PDGFRalpha(V561D) assay. In kind it is biochemical. As to conditions: recombinant human PDGFRalpha aa 550-end, 200 μM ATP, 1.4E-06 means 1.4×10^−6, read-out: Inhibition (IC50) of PDGFRα (V561D). Here is the method: (§1) PDGFRalpha(V561D) (N-terminal 6His-tagged, recombinant human PDGFRalpha, amino acids 550end containing the V561 D mutation) is incubated with 8 mM MOPS pH 7.0, 0.2 mM EDTA, 250 μM GGMEDIYEFMGGKKK, 10 mM MgAcetate and [gamma-33P-ATP] (specific activity approx. 500 cpm/pmol, concentration 200 μM). The reaction is initiated by the addition of the MgATP mix. After incubation for 40 minutes at room temperature, the reaction is stopped by the addition of 3% phosphoric acid solution. 10 μL of the reaction is then spotted onto a P30 filtermat and washed three times for 5 minutes in 75 mM phosphoric acid and once in methanol prior to drying and scintillation counting.

The target in a further assay is T2, c-Kit(V654A) (Homo sapiens, UniProt P10721, V654A).
T2 construct: amino acids 544-end containing the V654A mutation; GST (N)
T2 sequence (P10721 544-976 V654A): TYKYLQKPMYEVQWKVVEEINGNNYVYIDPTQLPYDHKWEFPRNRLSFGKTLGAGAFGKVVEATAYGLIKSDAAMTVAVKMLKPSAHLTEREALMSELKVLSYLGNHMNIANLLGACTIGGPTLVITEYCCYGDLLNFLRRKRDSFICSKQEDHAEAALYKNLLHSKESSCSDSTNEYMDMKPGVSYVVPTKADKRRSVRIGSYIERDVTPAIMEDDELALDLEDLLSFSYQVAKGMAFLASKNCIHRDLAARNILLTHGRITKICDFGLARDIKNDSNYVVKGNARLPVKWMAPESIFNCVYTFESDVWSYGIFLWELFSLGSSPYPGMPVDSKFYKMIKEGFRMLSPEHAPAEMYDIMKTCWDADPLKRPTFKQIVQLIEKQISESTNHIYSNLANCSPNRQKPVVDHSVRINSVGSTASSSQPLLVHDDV
Description: c-Kit(V654A) assay. It counts as biochemical. The settings on record: recombinant human c-Kit aa 544-end, 200 μM ATP, 1.4E-06 means 1.4×10^−6, read-out: Inhibition (IC50) of c-KIT (V654A). Here is the method: as §1, with “c-Kit(V654A)” for “PDGFRalpha(V561D)”, “GST-tagged,” for “6His-tagged,”, “c-Kit,” for “PDGFRalpha,”, “544-end” for “550end”, “V654A” for “V561 D”

T1 sequence (P16234 550-1089 V561D): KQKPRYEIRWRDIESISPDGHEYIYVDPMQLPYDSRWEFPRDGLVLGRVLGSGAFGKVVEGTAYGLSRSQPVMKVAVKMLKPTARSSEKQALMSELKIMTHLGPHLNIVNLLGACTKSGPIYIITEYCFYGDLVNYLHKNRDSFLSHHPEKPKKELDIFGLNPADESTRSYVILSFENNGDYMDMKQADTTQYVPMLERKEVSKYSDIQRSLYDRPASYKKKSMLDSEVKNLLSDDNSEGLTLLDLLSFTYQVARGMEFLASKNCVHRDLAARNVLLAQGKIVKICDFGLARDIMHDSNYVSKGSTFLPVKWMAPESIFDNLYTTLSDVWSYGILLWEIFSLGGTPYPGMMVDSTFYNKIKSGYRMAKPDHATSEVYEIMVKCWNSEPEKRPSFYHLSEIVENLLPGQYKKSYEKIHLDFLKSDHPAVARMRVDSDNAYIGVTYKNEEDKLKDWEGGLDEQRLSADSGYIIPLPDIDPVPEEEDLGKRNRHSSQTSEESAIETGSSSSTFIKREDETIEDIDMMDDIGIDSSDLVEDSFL

For the molecule `O=c1[nH]c2ccccc2cc1-c1cn(-c2ccc3nc[nH]c3c2)nn1` [A28, 3-[1-(3H-benzimidazol-5-yl)-1H-[1,2,3]triazol-4-yl]-1H-quinolin-2-one], the results for the IC50 on PDGFRalpha(V561D) and at c-Kit(V654A) were 29 nM and 36 nM, respectively.

For `O=C(c1ccc(-n2cc(-c3cc4ccncc4[nH]c3=O)nn2)cc1)N1CCOCC1` [A29, 3-{1-[4-(morpholine-4-carbonyl)-phenyl]-1H-[1,2,3]triazol-4-yl}-1H-[1,7]naphthyridin-2-one], the IC50 came to 23 nM on PDGFRalpha(V561D) and 150 nM on c-Kit(V654A).

In the case of `Cc1ccc2cc(-c3cn(-c4ccc(C(=O)N5CCOCC5)cc4)nn3)c(=O)[nH]c2n1` [A30, 7-methyl-3-{1-[4-(morpholine-4-carbonyl)-phenyl]-1H-[1,2,3]triazol-4-yl}-1H-[1,8]naphthyridin-2-one], the IC50 stood at 150 nM on PDGFRalpha(V561D) and 2200 nM at c-Kit(V654A).

For `O=C(c1ccc(-n2cc(-c3cc4cc(F)cnc4[nH]c3=O)nn2)cc1)N1CCOCC1` [A31, 6-fluoro-3-{1-[4-(morpholine-4-carbonyl)-phenyl]-1H-[1,2,3]triazol-4-yl}-1H-[1,8]naphthyridin-2-one], the IC50 came out at 13 nM at PDGFRalpha(V561D) and 99 nM at c-Kit(V654A).

With `O=C1COCCN1c1ccc(-n2cc(-c3cc4ccccc4[nH]c3=O)nn2)cc1F` [A32, 3-{1-[3-fluoro-4-(3-oxo-morpholin-4-yl)-phenyl]-1H-[1,2,3]triazol-4-yl}-1H-quinolin-2-one], the IC50 was 11 nM on PDGFRalpha(V561D) and 64 nM on c-Kit(V654A).

`O=C1COCCN1c1ccc(-n2cc(-c3cc4cc(F)ccc4[nH]c3=O)nn2)cc1F` [A33, 6-fluoro-3-{1-[3-fluoro-4-(3-oxo-morpholin-4-yl)-phenyl]-1H-[1,2,3]triazol-4-yl}-1H-quinolin-2-one]: the IC50 is 3 nM on PDGFRalpha(V561D) and 20 nM on c-Kit(V654A).

In the case of `O=C1COCCN1c1ccc(-n2cc(-c3cc4ccccc4[nH]c3=O)nn2)cn1` [A34, 3-{1-[6-(3-oxo-morpholin-4-yl)-pyridin-3-yl]-1H-[1,2,3]triazol-4-yl}-1H-quinolin-2-one], the IC50 is 110 nM on PDGFRalpha(V561D) and 5800 nM at c-Kit(V654A).

`Cc1cc(C(=O)N2CCOCC2)ccc1-n1cc(-c2cc3ccccc3[nH]c2=O)nn1` [A35, 3-{1-[2-methyl-4-(morpholine-4-carbonyl)-phenyl]-1H-[1,2,3]triazol-4-yl}-1H-quinolin-2-one]: the IC50 at PDGFRalpha(V561D) worked out at 49 nM; on c-Kit(V654A) it was 650 nM.

Turning to `CC(C)(O)c1ccc(-n2cc(-c3cc4ccccc4[nH]c3=O)nn2)cc1` [A36, 3-{1-[4-(1-hydroxy-1-methyl-ethyl)-phenyl]-1H-[1,2,3]triazol-4-yl}-1H-quinolin-2-one], the values for the IC50 on PDGFRalpha(V561D) and at c-Kit(V654A) were 17 nM and 29 nM, respectively.

With `O=C(c1ccc(-n2cc(-c3cc4ccccc4[nH]c3=O)nn2)cc1F)N1CCOCC1` [A37, 3-{1-[3-fluoro-4-(morpholine-4-carbonyl)-phenyl]-1H-[1,2,3]triazol-4-yl}-1H-quinolin-2-one], the results for the IC50 on PDGFRalpha(V561D) and at c-Kit(V654A) were 9 nM and 38 nM, respectively.

`COc1cc(-n2cc(-c3cc4ccccc4[nH]c3=O)nn2)cc(OC)c1OC` [A38, 3-[1-(3,4,5-trimethoxy-phenyl)-1H-[1,2,3]triazol-4-yl]-1H-quinolin-2-one]: the IC50 came to 580 nM at PDGFRalpha(V561D) and 3200 nM on c-Kit(V654A).

With `CNC(=O)c1ccc(-n2cc(-c3cc4ccccc4[nH]c3=O)nn2)cc1F` [A39, 2-fluoro-N-methyl-4-[4-(2-oxo-1,2-dihydro-quinolin-3-yl)-[1,2,3]triazol-1-yl]-benzamide], the IC50 at PDGFRalpha(V561D) is 23 nM; at c-Kit(V654A) it was 74 nM.

`Cc1cc(-n2cc(-c3cc4ccccc4[nH]c3=O)nn2)ccc1C(=O)N1CCOCC1` [A40, 3-{1-[3-methyl-4-(morpholine-4-carbonyl)-phenyl]-1H-[1,2,3]triazol-4-yl}-1H-quinolin-2-one]: the IC50 at PDGFRalpha(V561D) worked out at 7 nM; at c-Kit(V654A) it was 26 nM.
